Key:
[1] = Permeability of the compound at pH 5.5 incubated for 4 hrs by PAMPA based SpectraMax UV-plate reader analysis; type: ADME; details: read-out: permeability
[2] = target: Galectin-3 (Mus musculus, UniProt P16110); assay: Inhibition of mouse Galectin-3
[3] = Permeability of the compound at pH 7.4 incubated for 4 hrs by PAMPA based SpectraMax UV-plate reader analysis; type: ADME; details: read-out: permeability
[4] = target: Galectin-9 (Homo sapiens, UniProt O00182); assay: Inhibition of human Galectin-9
Chain of Galectin-9 (O00182 whole entry): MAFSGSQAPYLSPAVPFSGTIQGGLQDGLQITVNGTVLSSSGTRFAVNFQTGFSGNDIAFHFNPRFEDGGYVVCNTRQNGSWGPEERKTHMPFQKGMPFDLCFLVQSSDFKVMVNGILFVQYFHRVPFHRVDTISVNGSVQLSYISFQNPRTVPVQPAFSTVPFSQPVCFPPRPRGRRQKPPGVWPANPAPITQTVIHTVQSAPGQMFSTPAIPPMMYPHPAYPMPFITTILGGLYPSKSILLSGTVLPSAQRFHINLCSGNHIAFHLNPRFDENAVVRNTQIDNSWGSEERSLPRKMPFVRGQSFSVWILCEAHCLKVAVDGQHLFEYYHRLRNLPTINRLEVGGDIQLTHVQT

[5] = Clearance in mouse at 10 mg/kg,po administration; type: ADME, organism-based; details: in vivo
[6] = species: Homo sapiens; assay: Selectivity ratio of IC50 for inhibition of human Galectin-9 to IC50 for inhibition of human Galectin-3
[7] = AUC in mouse at 10 mg/kg,po administration; type: ADME, organism-based; design: dose 10 mg/kg, route po; details: in vivo
[8] = Cmax in mouse at 10 mg/kg,po administration; type: ADME, organism-based; design: dose 10 mg/kg, route po; details: in vivo
[9] = target: Galectin-1 (Homo sapiens, UniProt P09382); assay: Inhibition of human Galectin-1
Chain of Galectin-1 (P09382 whole entry): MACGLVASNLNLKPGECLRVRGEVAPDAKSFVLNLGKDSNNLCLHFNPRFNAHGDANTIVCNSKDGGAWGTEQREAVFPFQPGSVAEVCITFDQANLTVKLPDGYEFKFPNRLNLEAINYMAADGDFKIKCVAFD

[10] = species: Homo sapiens; assay: Selectivity ratio of IC50 for inhibition of human Galectin-1 to IC50 for inhibition of human Galectin-3
[11] = Volume of distribution at steady state in mouse at 10 mg/kg,po administration; type: ADME, organism-based; details: in vivo
[12] = target: Galectin-3 (Homo sapiens, UniProt P17931); assay: Inhibition of human Galectin-3
Chain of Galectin-3 (Homo sapiens, UniProt P17931) (P17931 whole entry): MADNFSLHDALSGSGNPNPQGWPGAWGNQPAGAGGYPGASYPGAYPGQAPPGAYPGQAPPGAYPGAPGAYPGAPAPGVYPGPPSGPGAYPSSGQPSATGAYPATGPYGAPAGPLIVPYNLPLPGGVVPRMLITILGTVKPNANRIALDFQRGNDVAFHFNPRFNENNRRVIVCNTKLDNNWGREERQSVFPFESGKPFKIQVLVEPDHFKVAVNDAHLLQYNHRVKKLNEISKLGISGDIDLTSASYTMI

[13] = Oral bioavailability in mouse at 10 mg/kg administration; type: ADME, organism-based; details: in vivo

Chain of Galectin-3 (Mus musculus, UniProt P16110) (P16110 whole entry): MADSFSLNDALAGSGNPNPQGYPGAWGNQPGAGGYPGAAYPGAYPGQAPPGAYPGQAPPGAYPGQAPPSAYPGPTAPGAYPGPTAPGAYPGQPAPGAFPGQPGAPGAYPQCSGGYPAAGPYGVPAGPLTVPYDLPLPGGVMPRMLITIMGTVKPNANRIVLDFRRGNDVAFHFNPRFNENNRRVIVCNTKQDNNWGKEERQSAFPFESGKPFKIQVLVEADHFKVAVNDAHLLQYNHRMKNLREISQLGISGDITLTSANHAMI

Compound | Papp at 4 h [1] [nm/s] | IC50 [2] [µM] | Papp at 4 h [3] [nm/s] | IC50 [12] [µM] | further results
Cc1nc([C@@H]2O[C@H](CO)[C@H](O)[C@H](n3cc(-c4cc(F)c(Br)c(F)c4)nn3)[C@H]2O)n(-c2ccc3ncsc3c2)n1 | 52 | 0.144 | 48 |  | 
CO[C@@H]1[C@@H](n2cc(-c3ccc(Cl)c(F)c3F)nn2)[C@@H](O)[C@@H](CO)O[C@H]1c1nc(C)nn1-c1ccc2ncsc2c1 | 731 | 0.084 | 802 | 0.011 | IC50 [4]: 3.53 µM; CL/F [5]: 0.48 L/h/kg; Ratio IC50 [6]: 321; AUC [7]: 14 µM·h; Cmax [8]: 4.3 µM; IC50 [9]: 2.72 µM; Ratio IC50 [10]: 247; Vdss [11]: 1.8 L/kg; bioavailability [13]: 40%
CO[C@@H]1[C@@H](n2cc(-c3cc(F)c(Br)c(F)c3)nn2)[C@@H](O)[C@@H](CO)O[C@H]1C(=O)N(C)c1ccc2ncsc2c1 | 578 | 0.206 | 538 |  | 
CO[C@@H]1[C@@H](n2cc(-c3cc(F)c(F)c(F)c3)nn2)[C@@H](O)[C@@H](CO)O[C@H]1C(=O)N(C)c1ccc2nc(C)sc2c1 | 298 | 2.51 | 186 |  | 
Cc1nc([C@@H]2O[C@H](CO)[C@H](O)[C@H](n3cc(-c4cc(F)c(F)c(F)c4)nn3)[C@H]2O)n(-c2ccc3ncsc3c2)n1 | 15 | 0.536 | 39 | 0.028 | 
Cc1nc2cc(C)c(-n3ncnc3[C@@H]3O[C@H](CO)[C@H](O)[C@H](n4cc(-c5cc(F)c(F)c(F)c5)nn4)[C@H]3O)cc2s1 |  | 1.2 |  | 0.052 | 
CO[C@@H]1[C@@H](n2cc(-c3ccc(Br)c(F)c3F)nn2)[C@@H](O)[C@@H](CO)O[C@H]1C(=O)N(C)c1ccc2ncsc2c1 | 279 | 0.095 | 269 |  | 
CO[C@H]1C(C(=O)N(C)c2ccc3ncsc3c2)O[C@H](CO)[C@H](O)[C@@H]1n1cc(-c2ccc(Cl)c(F)c2F)nn1 (single isomer, unassigned) | 294 | 0.169 | 295 |  | IC50 [4]: 2.75 µM; CL/F [5]: 0.72 L/h/kg; AUC [7]: 13 µM·h; Cmax [8]: 3.1 µM; IC50 [9]: 1.58 µM; Vdss [11]: 2.1 L/kg; bioavailability [13]: 52%
CCN(C(=O)[C@@H]1O[C@H](CO)[C@H](O)[C@H](n2cc(-c3cc(F)c(Cl)c(F)c3)nn2)[C@H]1OC)c1ccc2ncsc2c1 |  | 0.429 |  |  | 
Cc1nc([C@@H]2O[C@H](CO)[C@H](O)[C@H](n3cc(-c4cc(F)c5ccccc5c4)nn3)[C@H]2O)n(-c2ccc3ncsc3c2)n1 | 90 | 0.179 | 137 | 0.022 | 
CO[C@@H]1[C@@H](n2cc(-c3cc(F)c(Cl)c(F)c3)nn2)[C@@H](O)[C@@H](CO)O[C@H]1c1nc(C)nn1-c1ccc2ncsc2c1 | 591 | 0.15 |  |  | 
Cc1nc2ccc(-n3ncnc3[C@@H]3O[C@H](CO)[C@H](O)[C@H](n4cc(-c5cc(F)c(F)c(F)c5)nn4)[C@H]3O)cc2s1 |  | 1.22 |  | 0.063 | 
Cc1nc([C@@H]2O[C@H](CO)[C@H](O)[C@H](n3cc(-c4ccc(Br)c(F)c4F)nn3)[C@H]2O)n(-c2ccc3ncsc3c2)n1 | 307 | 0.045 | 301 | 0.0072 | IC50 [4]: 2.11 µM; Ratio IC50 [6]: 293; AUC [7]: 3 µM·h; Cmax [8]: 0.6 µM; IC50 [9]: 2.6 µM; Ratio IC50 [10]: 361
CO[C@@H]1[C@@H](n2cc(-c3ccc(Br)c(F)c3F)nn2)[C@@H](O)[C@@H](CO)O[C@H]1c1nc(C)nn1-c1ccc2ncsc2c1 | 1040 | 0.061 |  |  | IC50 [4]: 2.42 µM; Ratio IC50 [6]: 186; AUC [7]: 8.7 µM·h; Cmax [8]: 1.8 µM; IC50 [9]: 3.52 µM; Ratio IC50 [10]: 271
CO[C@@H]1[C@@H](n2cc(-c3cc(F)c(F)c(F)c3)nn2)[C@@H](O)[C@@H](CO)O[C@H]1C(=O)N(C)c1ccc2ncsc2c1 | 144 | 0.504 | 172 |  | IC50 [4]: 9.97 µM; IC50 [9]: 3.25 µM
Cc1nc2ccc(N(C)C(=O)[C@@H]3O[C@H](CO)[C@H](O)[C@H](n4cc(-c5cc(F)c(F)c(F)c5)nn4)[C@H]3O)cc2s1 | 19 | 3.51 | 8 |  | 
Cc1nc([C@@H]2O[C@H](CO)[C@H](O)[C@H](n3cc(-c4cc(F)c(Cl)c(F)c4)nn3)[C@H]2O)n(-c2ccc3ncsc3c2)n1 | 104 | 0.151 |  | 0.018 | 
CO[C@@H]1[C@@H](n2cc(-c3cc(F)c(Cl)c(F)c3)nn2)[C@@H](O)[C@@H](CO)O[C@H]1C(=O)Nc1ccc2ncsc2c1 |  | > 30 |  | > 10 | 
OC[C@H]1O[C@@H](c2ncnn2-c2ccc3ncsc3c2)[C@H](O)[C@@H](n2cc(-c3cc(F)c(F)c(F)c3)nn2)[C@H]1O |  | 0.939 |  | 0.037 | 
Cc1nc([C@@H]2O[C@H](CO)[C@H](O)[C@H](n3cc(-c4ccc(Cl)c(F)c4F)nn3)[C@H]2O)n(-c2ccc3ncsc3c2)n1 | 241 | 0.086 | 163 | 0.0088 | IC50 [4]: 3.01 µM; Ratio IC50 [6]: 342; IC50 [9]: 3.83 µM; Ratio IC50 [10]: 435
CO[C@@H]1[C@@H](n2cc(-c3cc(F)c(Br)c(F)c3)nn2)[C@@H](O)[C@@H](CO)O[C@H]1c1nc(C)nn1-c1ccc2ncsc2c1 |  | 0.15 |  | 0.03 | 
Cc1nc2cc(Cl)c(-n3ncnc3[C@@H]3O[C@H](CO)[C@H](O)[C@H](n4cc(-c5cc(F)c(F)c(F)c5)nn4)[C@H]3O)cc2s1 |  | 1.31 |  | 0.071 | 
CO[C@@H]1[C@@H](n2cc(-c3cc(F)c(Cl)c(F)c3)nn2)[C@@H](O)[C@@H](CO)O[C@H]1C(=O)N(C)c1ccc2ncsc2c1 | 160 | 0.178 | 167 |  | 

From ChEMBL document CHEMBL5335822, “Identification of benzothiazole derived monosaccharides as potent, selective, and orally bioavailable inhibitors of human and mouse galectin-3; a rare example of using a S···O binding interaction for drug design” (Bioorg Med Chem, 2024)
